According to patent publication US4175133A, “1,2-Diaminocyclohexane platinum (II) complexes having antineoplastic activity against L1210 leukemia” (priority 1977, dated 1979):
Structures can show the parent of a compound that is named as a salt.

Assays:
[1] = test system: L1210 leukemia; experiment: combination chemotherapy against L1210 leukemia in mice (10^6 L1210 cells ip, schedule A); format: in vivo; settings: Yoshi-864 and cyclophosphamide 75 mg/kg each; for 60-Day Survivors: out of 10, dichloro complex 2.5 mg/kg; for % ILS: dichloro complex 2.5 mg/kg
Excerpt: The significance of this test system in evaluating potential antineoplastic agents and the test protocol therefor, are described in detail by Geran et al, "Protocols for Screening Chemical Agents and Natural Products Against Animal Tumors and Other Biological Systems" (Third Edition), Cancer Chemotherapy Reports, Part 3, Volume 3, No. 2, Pages 1-103, September 1972. Briefly, the test procedure involves implanting L1210 leukemia cells into mice by intraperitoneal (i.p.) injection, beginning i.p. treatment with the test drug 24 hours after implant, and determining the antineoplastic activity of the test drug at optimum dose levels and schedules of administration as the percent increase in life span (%ILS) of the treated mice over the untreated control mice.
In this set of tests, the mice received by ip injection 10^6 L1210 leukemia cells, which produces a somewhat more advanced stage of the disease after 24 hours than is obtained upon using 10^5 cells as described in the previous set of tests. The mice were then divided into groups of ten, including a control group, and all mice within the same group were given the same treatment. Treatment was administered ip employing the A schedule of administration. […] The treatments tested were each of the three treating agents by themselves and the dichloro complex in combination with each of the other two treating agents. The resulting %ILS values and the number of mice (out of the group of 10) which survived sixty days following implant, are set forth in Table III.

[2] = test system: L1210 leukemia; experiment: as above; format: in vivo; settings: Yoshi-864 and cyclophosphamide 75 mg/kg each; for 60-day Survivors: out of 10, sulfato complex 4 mg/kg
[3] = test system: L1210 leukemia; settings: Gale et al 1974; cited from earlier work
[4] = test system: Sarcoma 180; settings: Cleare et al 1973; cited from earlier work
[5] = test system: L1210 leukemia; experiment: antineoplastic activity against L1210 leukemia in mice, individual treatment (10^5 L1210 cells ip); format: in vivo; settings: for % ILS: 10^5 cells; for Dose/Injection range found safe and effective for providing %ILS of at least 25%, Schedule B: ip injections on days 1, 5 and 9 after implant; for Dose/Injection range found safe and effective for providing %ILS of at least 25%, Schedule C: ip injections on each of days 1-9 after implant; for Dose/Injection range found safe and effective for providing %ILS of at least 25%, Schedule A: single ip injection on day 1 after implant
Description: Schedule A consisted of a single injection administered ip on the first day following implant of the L1210 leukemia cells. (i.e., 24 hours after implant). Schedule B consisted of a three-injection regimen, with one injection being administered ip on each of the first, fifth and ninth days following implant. Schedule C consisted of a nine-injection regimen, with one injection being administered ip on each of the first through ninth days following implant.
In this set of tests, the mice received 10^5 L1210 leukemia cells by ip injection, and were divided into groups of 10, including a control group.

[6] = test system: ADJ/PC6A plasma cell tumor; settings: in comparison with cis-dichlorodiammineplatinum (II); Connors et al 1972; cited from earlier work
[7] = test system: L1210 leukemia; experiment: antineoplastic activity of hydroxonitrato complex against L1210 leukemia in mice (10^6 L1210 cells ip); format: in vivo; settings: Schedule A
Description: The mice received by ip injection 10^6 L1210 leukemia cells, which produces a somewhat more advance stage of the disease after 24 hours than is obtained upon using 10^5 cells as described previously. The mice were then divided into groups of six, including a control group. […] The highest %ILS value obtained was 144 at a dose level of 10 mg/kg.

[8] = test system: cancer; settings: in vivo; cited from earlier work
[9] = hydroxymalonato complex 30 mg/kg
[10] = out of 10, dinitrato complex 3 mg/kg
[11] = out of 10, hydroxymalonato complex 30 mg/kg
[12] = out of 10, malonato complex 15 mg/kg
[13] = highest %ILS regardless of schedule or dose level

O=P1(N(CCCl)CCCl)NCCCO1 (centres unmarked) [Cyclophosphamide, cyclophosphamide]
60-Day Survivors [1]: 0 mice
% ILS ([2]; dichloro complex 2.5 mg/kg): 79%
% ILS ([2]; dinitrato complex 3 mg/kg): 105%
% ILS [2, 9]: 107%
% ILS ([2]; malonato complex 15 mg/kg): 118%
60-Day Survivors [2, 10]: 0 mice
60-Day Survivors [2, 11]: 0 mice
60-Day Survivors [2, 12]: 0 mice
60-day Survivors [2]: 0 mice
% ILS ([2]; sulfato complex 4 mg/kg): 97%

NC1CCCCC1N.[Cl][Pt][Cl] (centres unmarked) [Dichloro complex, dichloro (1,2-diaminocyclohexane) platinum (II)]
combination with cyclophosphamide (in words) [3]: combined synergistically
effectiveness against L1210 leukemia (in words) [3]: highly effective
increase in mean survival time in comparison with cis-dichlorodiammineplatinum (II) [3]: up to 54%
antitumor activity against Sarcoma 180 (in words) [4]: only marginal antitumor activity
% ILS ([5]; Schedule A, 6.25 mg/kg/injection ip): 114%
% ILS ([5]; Schedule B, 8.0 mg/kg/injection ip): 113%
% ILS ([5]; Schedule C, 2.0 mg/kg/injection ip): 153%
% ILS [1]: 73%
60-Day Survivors [1]: 0 mice
ID50 (in words) [6]: quite similar to those of cis-dichlorodiammineplatinum (II)
LD50 (in words) [6]: quite similar to those of cis-dichlorodiammineplatinum (II)

NC1CCCCC1N.O=[N+]([O-])[O-].O=[N+]([O-])[O-].[Pt+2] (centres unmarked) [Dinitrato complex, dinitrato (1,2-diaminocyclohexane) platinum (II)]
% ILS ([5]; Schedule A, 4.0 mg/kg/injection ip): 113%
% ILS ([5]; Schedule B, 4.0 mg/kg/injection ip): 247%
% ILS ([5]; Schedule C, 0.5 mg/kg/injection ip): 281%
level of antineoplastic activity greater than that achieved with the dichloro complex [5, 13]: 83%
Dose/Injection range found safe and effective for providing %ILS of at least 25%, Schedule B [5]: 0.25 to 4 mg/kg
Dose/Injection range found safe and effective for providing %ILS of at least 25%, Schedule C [5]: 0.05 to 2 mg/kg
Dose/Injection range found safe and effective for providing %ILS of at least 25%, Schedule A [5]: 0.5 to 8 mg/kg
% ILS ([2]; dinitrato complex 3 mg/kg): 110%
60-Day Survivors [2, 10]: 0 mice

NC1CCCCC1N.O=[N+]([O-])[O-].[OH-].[Pt+2] (centres unmarked) [Hydroxonitrato complex, hydroxonitrato (1,2-diaminocyclohexane) platinum (II)]
Dose/Injection range found safe and effective for providing %ILS of at least 25%, Schedule B [5]: 1 to 5 mg/kg
Dose/Injection range found safe and effective for providing %ILS of at least 25%, Schedule C [5]: 0.3 to 1.25 mg/kg
Dose/Injection range found safe and effective for providing %ILS of at least 25%, Schedule A [5]: 2.5 to 15 mg/kg
% ILS ([7]; 10 mg/kg ip, 10^6 cells): 144%
greater %ILS value than dichloro complex ([7]; 10^6 cells vs dichloro complex at 10^5 cells): 26%

NC1CCCCC1N.O=C([O-])CC(=O)[O-].[Pt+2] (centres unmarked) [Malonato complex, malonato (1,2-diaminocyclohexane) platinum (II)]
antitumor activity against Sarcoma 180 (in words) [4]: only marginal antitumor activity
% ILS ([5]; Schedule A, 2.5 mg/kg/injection ip): 258%
% ILS ([5]; Schedule A, 40.0 mg/kg/injection ip): 271%
% ILS ([5]; Schedule B, 40.0 mg/kg/injection ip): 157%
% ILS ([5]; Schedule C, 10.0 mg/kg/injection ip): 219%
level of antineoplastic activity greater than that achieved with the dichloro complex [5, 13]: 77%
Dose/Injection range found safe and effective for providing %ILS of at least 25%, Schedule B [5]: 10 to 40 mg/kg
Dose/Injection range found safe and effective for providing %ILS of at least 25%, Schedule C [5]: 5 to 20 mg/kg
Dose/Injection range found safe and effective for providing %ILS of at least 25%, Schedule A [5]: 2.5 to 160 mg/kg
% ILS ([2]; malonato complex 15 mg/kg): 80%
60-Day Survivors [2, 12]: 0 mice

NC1CCCCC1N.O=S(=O)([O-])[O-].[Pt+2] (centres unmarked) [Sulfato complex, sulfato (1,2-diaminocyclohexane) platinum (II)]
% ILS ([5]; Schedule A, 5.0 mg/kg/injection ip): 116%
% ILS ([5]; Schedule B, 3.33 mg/kg/injection ip): 285%
% ILS ([5]; Schedule C, 0.6 mg/kg/injection ip): 239%
level of antineoplastic activity greater than that achieved with the dichloro complex [5, 13]: 86%
Dose/Injection range found safe and effective for providing %ILS of at least 25%, Schedule B [5]: 0.2 to 5 mg/kg
Dose/Injection range found safe and effective for providing %ILS of at least 25%, Schedule C [5]: 0.1 to 1.2 mg/kg
Dose/Injection range found safe and effective for providing %ILS of at least 25%, Schedule A [5]: 0.5 to 10 mg/kg
60-day Survivors [2]: 0 mice
% ILS ([2]; sulfato complex 4 mg/kg): 119%

CS(=O)(=O)OCCCNCCCOS(C)(=O)=O [Yoshi-864, 1-propanol, 3,3'-iminodi-,dimethanesulfonate (ester) hydrochloride]
% ILS [1]: 81%
60-Day Survivors [1]: 0 mice
% ILS ([2]; dinitrato complex 3 mg/kg): 116%
% ILS [2, 9]: 117%
% ILS ([2]; malonato complex 15 mg/kg): 112%
60-Day Survivors [2, 10]: 0 mice
60-Day Survivors [2, 11]: 0 mice
60-Day Survivors [2, 12]: 0 mice
60-day Survivors [2]: 0 mice
% ILS ([2]; sulfato complex 4 mg/kg): 95%

N.N.[Cl][Pt][Cl] [cis-dichlorodiammineplatinum (II)]
therapeutic index (in words) [8]: rather low therapeutic index

hydroxymalonato (1,2-diaminocyclohexane) platinum (II) [Hydroxymalonato complex]
% ILS ([5]; Schedule A, 75.0 mg/kg/injection ip): 97%
% ILS ([5]; Schedule B, 37.5 mg/kg/injection ip): 162%
level of antineoplastic activity greater than that achieved with the dichloro complex [5, 13]: 111%
level of antineoplastic activity greater than that achieved with the malonato complex [5, 13]: 19%
potency against L1210 leukemia relative to malonato complex (in words) ([5]; in comparison with malonato complex): even greater potency
Dose/Injection range found safe and effective for providing %ILS of at least 25%, Schedule B [5]: 5 to 37.5 mg/kg
Dose/Injection range found safe and effective for providing %ILS of at least 25%, Schedule C [5]: 1 to 15 mg/kg
Dose/Injection range found safe and effective for providing %ILS of at least 25%, Schedule A [5]: 2 to 150 mg/kg
water solubility: 1500 µg/mL
% ILS [2, 9]: 118%
60-Day Survivors [2, 11]: 0 mice
